In patent EP1003557B1, “NEW SALTS WITH BENEFICIAL ORGANOLEPTIC PROPERTIES” (CHINOIN Gyogyszer és Vegyészeti Termékek Gyára RT., priority 1997, dated 1999):
Where a name gives a salt, the structure may show the parent alone.

Test system: Human U937 (cell line) PDE-IV enzime
Experiment: Cyclic nucleotide phosphodiesterase (PDE-IV) enzyme inhibition, two-step [3H]cAMP procedure
Assay type: biochemical
Conditions: [3H]cAMP substrate, 30 °C for 30 min, Tris buffer pH=7.6
Method: Cyclic nucleotide phosphodiesterase activity is measured by a two-step procedure. […] The reaction is initiated by addition of the substrate. […] After cooling the tubes, 50µl of Crotalux atrox (0.5 mg/ml dest. water) is added and the samples are incubated and shaked for 30 min at 37°C. […] The mixture of 500 µl supernatant and 5 ml of liquid scintillation cocktail is measured to determine the amount of formed ^3H adenosine.

| IC50 [µM] | Compound |
| --- | --- |
| 1 | CCOc1ccc(C=C2NCCc3cc(OCC)c(OCC)cc32)cc1OCC [Example 2, drotaverin cyclamate] |
| 4.7 | CCOc1ccc(/C=C2\NCCc3cc(OCC)c(OCC)cc32)cc1OCC [drotaverin hydrochloride, reference compound] |

| Compound | IC50 [µM] |
| --- | --- |
| drotaverin-saccharimide ethanolate [Example 1] | 3.8 |
